Test results reported in ChEMBL document CHEMBL3414487, “Synthesis and biological activity of salinomycin conjugates with floxuridine” (Eur J Med Chem, 2015).
In brackets after ≈: the same amount, converted by molar mass.

Columns and labels:
HT-29 [1] = assay: Antiproliferative activity against human HT-29 cells assessed as growth inhibition after 72 hrs by SRB method; format: functional, cell-based; conditions: Homo sapiens, HT-29, 72 h
LoVo [2] = assay: Antiproliferative activity against human LoVo cells assessed as growth inhibition after 72 hrs by SRB method; format: functional, cell-based; conditions: Homo sapiens, LoVo, 72 h
[3] = Antiproliferative activity against human SW707 cells assessed as growth inhibition after 72 hrs by SRB method; format: functional, cell-based; conditions: Homo sapiens, SW707, 72 h
[4] = Antiproliferative activity against human vincristine-resistant HL60/Vinc cells assessed as growth inhibition after 72 hrs by MTT assay; format: functional; conditions: Homo sapiens, HL60/vinc, 72 h
[5] = Antiproliferative activity against human doxorubicin-resistant LoVo/DX cells assessed as growth inhibition after 72 hrs by SRB method; format: functional, cell-based
BALB/3T3 = assay: Antiproliferative activity against mouse BALB/3T3 cells assessed as growth inhibition after 72 hrs by SRB method; format: cell-based; conditions: BALB/3T3, 72 h
Staphylococcus aureus [6] = assay: Antimicrobial activity against methicillin-resistant Staphylococcus aureus 573/12 after 18 hrs by two-fold serial microdilution method; format: functional; conditions: 573/12, 18 h
[7] = system: Staphylococcus epidermidis; assay: Antimicrobial activity against methicillin-resistant Staphylococcus epidermidis 469/11 after 18 hrs by two-fold serial microdilution method; format: functional; conditions: 469/11, 18 h
Staphylococcus aureus [8] = assay: Antimicrobial activity against Staphylococcus aureus […] 4163 after 18 hrs by two-fold serial microdilution method; format: functional
[9] = system: Staphylococcus epidermidis; assay: Antimicrobial activity against Staphylococcus epidermidis ATCC 12228 after 18 hrs by two-fold serial microdilution method; format: functional; conditions: ATCC 12228, 18 h
[10] = system: Staphylococcus epidermidis; assay: Antimicrobial activity against methicillin-resistant Staphylococcus epidermidis 489/11 after 18 hrs by two-fold serial microdilution method; format: functional; conditions: 489/11, 18 h
HL-60 [11] = assay: Resistance index, ratio of IC50 for human HL60/Vinc cells to IC50 for human HL60 cells
[12] = Antiproliferative activity against human LS180 cells assessed as growth inhibition after 72 hrs by SRB method; format: functional, cell-based; conditions: Homo sapiens, LS180, 72 h
[13] = Selectivity index, ratio of IC50 for mouse BALB/3T3 cells to IC50 for human HL60/Vinc cells; format: functional
Staphylococcus aureus [14] = assay: Antimicrobial activity against methicillin-resistant Staphylococcus aureus 456/11 after 18 hrs by two-fold serial microdilution method; format: functional; conditions: 456/11, 18 h
[15] = system: Staphylococcus epidermidis; assay: Antimicrobial activity against methicillin-resistant Staphylococcus epidermidis 461/11 after 18 hrs by two-fold serial microdilution method; format: functional; conditions: 461/11, 18 h
Staphylococcus aureus [16] = assay: Antimicrobial activity against methicillin-resistant Staphylococcus aureus 585/12 after 18 hrs by two-fold serial microdilution method; format: functional; conditions: 585/12, 18 h
Staphylococcus aureus [17] = assay: Antimicrobial activity against methicillin-resistant Staphylococcus aureus 514/11 after 18 hrs by two-fold serial microdilution method; format: functional; conditions: 514/11, 18 h
[18] = system: Staphylococcus epidermidis; assay: Antimicrobial activity against methicillin-resistant Staphylococcus epidermidis 459/11 after 18 hrs by two-fold serial microdilution method; format: functional; conditions: 459/11, 18 h
HT-29 [19] = assay: Selectivity index, ratio of IC50 for mouse BALB/3T3 cells to IC50 for human HT-29 cells; format: functional
[20] = system: Staphylococcus epidermidis; assay: Antimicrobial activity against methicillin-resistant Staphylococcus epidermidis 470/11 after 18 hrs by two-fold serial microdilution method; format: functional; conditions: 470/11, 18 h
Staphylococcus aureus [21] = assay: Antimicrobial activity against Staphylococcus aureus ATCC 29213 after 18 hrs by two-fold serial microdilution method; format: functional; conditions: ATCC 29213, 18 h
Staphylococcus aureus [22] = assay: Antimicrobial activity against methicillin-resistant Staphylococcus aureus 452/11 after 18 hrs by two-fold serial microdilution method; format: functional; conditions: 452/11, 18 h
LoVo [23] = assay: Resistance index, ratio of IC50 for human LoVo/DX cells to IC50 for human LoVo cells
[24] = Selectivity index, ratio of IC50 for mouse BALB/3T3 cells to IC50 for human LS180 cells; format: functional
Staphylococcus aureus [25] = assay: Antimicrobial activity against methicillin-resistant Staphylococcus aureus 537/12 after 18 hrs by two-fold serial microdilution method; format: functional; conditions: 537/12, 18 h
Staphylococcus aureus [26] = assay: Antimicrobial activity against methicillin-resistant Staphylococcus aureus 462/11 after 18 hrs by two-fold serial microdilution method; format: functional; conditions: 462/11, 18 h
[27] = system: Staphylococcus epidermidis; assay: Antimicrobial activity against methicillin-resistant Staphylococcus epidermidis 468/11 after 18 hrs by two-fold serial microdilution method; format: functional; conditions: 468/11, 18 h
[28] = system: Staphylococcus epidermidis; assay: Antimicrobial activity against methicillin-resistant Staphylococcus epidermidis 460/11 after 18 hrs by two-fold serial microdilution method; format: functional; conditions: 460/11, 18 h
[29] = Antiproliferative activity against human HL60 cells assessed as growth inhibition after 72 hrs by MTT assay; format: functional, cell-based; conditions: HL-60, 72 h
Staphylococcus aureus [30] = assay: Antimicrobial activity against Staphylococcus aureus ATCC 6538 after 18 hrs by two-fold serial microdilution method; format: functional; conditions: ATCC 6538, 18 h
[31] = Selectivity index, ratio of IC50 for mouse BALB/3T3 cells to IC50 for human SW707 cells; format: functional
[32] = system: Staphylococcus epidermidis; assay: Antimicrobial activity against methicillin-resistant Staphylococcus epidermidis 466/11 after 18 hrs by two-fold serial microdilution method; format: functional; conditions: 466/11, 18 h
[33] = Selectivity index, ratio of IC50 for mouse BALB/3T3 cells to IC50 for human LoVo/DX cells; format: functional
LoVo [34] = assay: Selectivity index, ratio of IC50 for mouse BALB/3T3 cells to IC50 for human LoVo cells; format: functional
Staphylococcus aureus [35] = assay: Antimicrobial activity against methicillin-resistant Staphylococcus aureus 572/12 after 18 hrs by two-fold serial microdilution method; format: functional; conditions: 572/12, 18 h
[36] = system: Staphylococcus epidermidis; assay: Antimicrobial activity against methicillin-resistant Staphylococcus epidermidis 467/11 after 18 hrs by two-fold serial microdilution method; format: functional; conditions: 467/11, 18 h
[37] = system: Staphylococcus epidermidis; assay: Antimicrobial activity against Staphylococcus epidermidis ATCC 35984 after 18 hrs by two-fold serial microdilution method; format: functional; conditions: ATCC 35984, 18 h
HL-60 [38] = assay: Selectivity index, ratio of IC50 for mouse BALB/3T3 cells to IC50 for human HL60 cells; format: functional
Staphylococcus aureus [39] = assay: Antimicrobial activity against Staphylococcus aureus ATCC 25923 after 18 hrs by two-fold serial microdilution method; format: functional; conditions: ATCC 25923, 18 h
[40] = system: Staphylococcus epidermidis; assay: Antimicrobial activity against methicillin-resistant Staphylococcus epidermidis 488/11 after 18 hrs by two-fold serial microdilution method; format: functional; conditions: 488/11, 18 h
Staphylococcus aureus [41] = assay: Antimicrobial activity against methicillin-resistant Staphylococcus aureus 522/12 after 18 hrs by two-fold serial microdilution method; format: functional; conditions: 522/12, 18 h
Staphylococcus aureus [42] = assay: Antimicrobial activity against methicillin-resistant Staphylococcus aureus 586/12 after 18 hrs by two-fold serial microdilution method; format: functional; conditions: 586/12, 18 h

## COc1cccc2c1C(=O)c1c(O)c3c(c(O)c1C2=O)C[C@@](O)(C(=O)CO)C[C@@H]3O[C@H]1C[C@H](N)[C@H](O)[C@H](C)O1 [DOXORUBICIN]
HT-29 [1]
  IC50: 890 nM
LoVo [2]
  IC50: 150 nM
[3]
  IC50: 180 nM
[4]
  IC50: 880 nM
[5]
  IC50: 5.46 µM
BALB/3T3
  IC50: 0.18 µM

## CC[C@@H](C(=O)[C@@H](C)[C@@H](O)[C@H](C)[C@@H]1O[C@@H]([C@@H](CC)C(=O)O)CC[C@@H]1C)[C@H]1O[C@]2(C=C[C@@H](O)[C@]3(CC[C@@](C)([C@H]4CC[C@](O)(CC)[C@H](C)O4)O3)O2)[C@H](C)C[C@@H]1C [SALINOMYCIN]
Staphylococcus aureus [6]
  MIC: 1.33 µM (≈ 0.999 µg/mL)
[7]
  MIC: 2.66 µM (≈ 2 µg/mL)
HT-29 [1]
  IC50: 1030 nM
Staphylococcus aureus [8]
  MIC: 2.66 µM (≈ 2 µg/mL)
LoVo [2]
  IC50: 360 nM
[9]
  MIC: 2.66 µM (≈ 2 µg/mL)
[10]
  MIC: 2.66 µM (≈ 2 µg/mL)
HL-60 [11]
  Ratio IC50: 7.21
[12]
  IC50: 610 nM
[13]
  Selectivity Index: 4.46
Staphylococcus aureus [14]
  MIC: 1.33 µM (≈ 0.999 µg/mL)
[15]
  MIC: 2.66 µM (≈ 2 µg/mL)
Staphylococcus aureus [16]
  MIC: 2.66 µM (≈ 2 µg/mL)
Staphylococcus aureus [17]
  MIC: 2.66 µM (≈ 2 µg/mL)
[18]
  MIC: 2.66 µM (≈ 2 µg/mL)
HT-29 [19]
  Selectivity Index: 9.06
[20]
  MIC: 2.66 µM (≈ 2 µg/mL)
Staphylococcus aureus [21]
  MIC: 2.66 µM (≈ 2 µg/mL)
Staphylococcus aureus [22]
  MIC: 1.33 µM (≈ 0.999 µg/mL)
LoVo [23]
  Ratio IC50: 2.11
[24]
  Selectivity Index: 15.3
Staphylococcus aureus [25]
  MIC: 2.66 µM (≈ 2 µg/mL)
Staphylococcus aureus [26]
  MIC: 2.66 µM (≈ 2 µg/mL)
[27]
  MIC: 2.66 µM (≈ 2 µg/mL)
[28]
  MIC: 2.66 µM (≈ 2 µg/mL)
[29]
  IC50: 290 nM
Staphylococcus aureus [30]
  MIC: 2.66 µM (≈ 2 µg/mL)
[31]
  Selectivity Index: 5.39
[3]
  IC50: 1730 nM
[32]
  MIC: 2.66 µM (≈ 2 µg/mL)
[33]
  Selectivity Index: 12.28
[4]
  IC50: 2090 nM
LoVo [34]
  Selectivity Index: 25.92
Staphylococcus aureus [35]
  MIC: 1.33 µM (≈ 0.999 µg/mL)
[5]
  IC50: 0.76 µM
[36]
  MIC: 2.66 µM (≈ 2 µg/mL)
[37]
  MIC: 2.66 µM (≈ 2 µg/mL)
HL-60 [38]
  Selectivity Index: 32.17
Staphylococcus aureus [39]
  MIC: 2.66 µM (≈ 2 µg/mL)
[40]
  MIC: 2.66 µM (≈ 2 µg/mL)
Staphylococcus aureus [41]
  MIC: 2.66 µM (≈ 2 µg/mL)
BALB/3T3
  IC50: 9.33 µM
Staphylococcus aureus [42]
  MIC: 2.66 µM (≈ 2 µg/mL)
